# Measured values: BindingDB's records for doi:10.1016/S0960-894X(00)80673-3 (1993)
# Target: HIV-2 protease (Human immunodeficiency virus 2)
# Assay: Tested for the inhibition of HIV-2 protease
structure (smiles),measurement,value
"CCC(C)[C@H](NC(=O)[C@@H](C[C@H](O)[C@H](CC1CCCCC1)NC(=O)[C@H](CC(N)=O)NC(=O)c1ccc2ccccc2n1)C(C)C)C(=O)NCc1ccccn1 (stereo partly drawn) [(S)-N*1*-((1S,2S,4S)-1-Cyclohexylmethyl-2-hydroxy-5-methyl-4-{(S)-2-methyl-1-[(pyridin-2-ylmethyl)-carbamoyl]-butylcarbamoyl}-hexyl)-2-[(quinoline-2-carbonyl)-amino]-succinamide]",Ki,65 nM
